In brackets after ≈: the same amount, converted by molar mass. Where two headings read alike, the source gives them in different places.
How the values were obtained:
[1] = test system: polyclonal anti-TCPN antibody; test: TCPN EIA, reactivity profile with polyclonal antibody; type: binding; conditions: for IC50: 10 min; for % Cross Reactivity: relative to TCPN
Procedure: (§1) The following immunoassay protocol was followed
(§2) 1. Microplates were prepared by binding screening conjugate Cl-O-AHT to the polystyrene surface.
(§3) 2. An appropriately diluted sample (200 μl) and the anti-TCPN antibody conjugated to horse radish peroxidase (50 μl) were added and incubated for 10 minutes.
(§4) 3. The wells were rinsed, and 200 μl of substrate, tetramethyl benzidine (TMB), was added to the wells.
(§5) 4. The plates were incubated for a further 10 minutes and 50 μl of stop solution (1.5% NaF) was added.
(§6) 5. The color reaction was read by measuring absorbance at 650 nm.
(§7) The cross reactivity of various TCPN derivatives and other benzene ring-based haptens were assessed using the above antibody preparations.

mAb 6F9 = test: TCPN EIA, reactivity profile with monoclonal antibody; type: binding, mouse; conditions: for IC50: 10 min; for % Cross Reactivity: relative to TCPN
Procedure: as §1, §2, §3, §4, §5, §6, §7

Solubility = type: physicochemical
human skin = conditions: cited from earlier work
experimental animals = conditions: cited from earlier work
[2] = cited from earlier work
[3] = water or polar organic solvents

SMILES	IC50 [1]	% Cross Reactivity [1] [%]	IC50 (mAb 6F9)	% Cross Reactivity (mAb 6F9) [%]	also measured
N#Cc1c(N)c(Cl)c(Cl)c(C#N)c1Cl [4-aminoTCPN, 4-amino-2,5,6-trichloroisophthalonitrile]	43 ppb	12	2.4 ppb	92	
N#Cc1c(O)c(Cl)c(Cl)c(C#N)c1Cl [4-hydroxyTCPN, 4-hydroxy-2,5,6-trichloroisophthalonitrile]	1010 ppb	0.5	8.0 ppb	28	
N#Cc1c(S)c(Cl)c(Cl)c(C#N)c1Cl [4-mercaptoTCPN, 4-mercapto-2,5,6-trichloroisophthalonitrile]	10 ppb	60	4.8 ppb	46	
N#Cc1c(Cl)c(N)c(Cl)c(C#N)c1Cl [5-amino-TCPN, 5-amino-2,4,6-trichloroisophthalonitrile]	43 ppb	12	1.9 ppb	116	
N#Cc1c(Cl)c(O)c(Cl)c(C#N)c1Cl [5-hydroxyTCPN, 5-hydroxy-2,4,6-trichloroisophthalonitrile]	800 ppb	0.6	7.0 ppb	31	
CCc1cccc(CC)c1N(COC)C(=O)CCl [Alachlor]	> 10^4 ppb	< 0.01	> 10^4 ppb	< 0.01	
CCNc1nc(Cl)nc(NC(C)C)n1 [Atrazine]	> 10^4 ppb	< 0.01	> 10^4 ppb	< 0.01	
N#Cc1c(Cl)c(C#N)c(Cl)c(OC(=O)NCC(=O)O)c1Cl [BK-489-35]					solubility (Solubility; [3]): extremely low solubility
N#Cc1c(Cl)c(C#N)c(Cl)c(OC(=O)CC(=O)O)c1Cl [BK-489-36]					solubility (Solubility; dmf, organic solvent or mixture, read-out: solubility): 4500 µg/mL (≈ 13.5 mM)
N#Cc1c(Cl)c(C#N)c(Cl)c(NC(=O)NCC(=O)O)c1Cl [BK-489-41]					solubility (Solubility; [3]): high solubility
CCCCNC(=O)n1c(NC(=O)OC)nc2ccccc21 [Benomyl]	> 10^4 ppb	< 0.01	> 10^4 ppb	< 0.01	
Clc1c(Cl)c(Cl)c(Cl)c(Cl)c1Cl [HCB, hexachlorobenzene]	> 10^4 ppb	< 0.01	> 10^4 ppb	< 0.01	
COC(=O)Nc1nc2ccccc2[nH]1 [MBC, carbendazim]	> 10^4 ppb	< 0.01	> 10^4 ppb	< 0.01	
CCc1cccc(C)c1N(C(=O)CCl)C(C)COC (stereo not drawn) [Metolachlor]	> 10^4 ppb	< 0.01	> 10^4 ppb	< 0.01	
N#Cc1c(Cl)c(Cl)c(Cl)c(Cl)c1Cl [PCBN, pentachlorobenzonitrile]	60 ppb	8.3	30 ppb	7.3	
N#Cc1c(Cl)c(Cl)c(Cl)c(C#N)c1Cl [TCPN, tetrachloroisophthalonitrile]	5.0 ppb	100	2.2 ppb	100	allergic reaction (human skin; exposed humans): stimulates an allergic reaction, leading to an IgE antibody response; contact dermatitis (human skin; production plant and field): associated with contact dermatitis; sensitizing properties (human skin; tested directly on human skin): sensitizing properties; sensitizing properties (experimental animals): sensitizing properties; solubility in water [2]: practically insoluble in water
CCCN(CCC)c1c([N+](=O)[O-])cc(C(F)(F)F)cc1[N+](=O)[O-] [Trifluralin]	> 10^4 ppb	< 0.01	> 10^4 ppb	< 0.01	
NC(=O)c1c(Cl)c(Cl)cc(C(=O)O)c1Cl [acid/amide TCPN, 3-carbamyl-2,4,5-trichlorobenzoic acid]	> 10^4 ppb	< 0.01	> 10^4 ppb	< 0.01	
N#Cc1c(Cl)c(Cl)c(Cl)c(C(N)=O)c1Cl [amide TCPN, 2,4,5,6-tetrachloro-3-cyanobenzamide]	700 ppb	0.7	800 ppb	2.8	
